Patent US6287834A, “Characterization and use of an isolated uridine diphospho-glucuronosyltransferase” (Endorecherche, Inc., priority 1999, dated 2001)

T1: UGT2B17 (Homo sapiens, UniProt O75795)
T1 construct: cell homogenate
T1 sequence (O75795 24-530): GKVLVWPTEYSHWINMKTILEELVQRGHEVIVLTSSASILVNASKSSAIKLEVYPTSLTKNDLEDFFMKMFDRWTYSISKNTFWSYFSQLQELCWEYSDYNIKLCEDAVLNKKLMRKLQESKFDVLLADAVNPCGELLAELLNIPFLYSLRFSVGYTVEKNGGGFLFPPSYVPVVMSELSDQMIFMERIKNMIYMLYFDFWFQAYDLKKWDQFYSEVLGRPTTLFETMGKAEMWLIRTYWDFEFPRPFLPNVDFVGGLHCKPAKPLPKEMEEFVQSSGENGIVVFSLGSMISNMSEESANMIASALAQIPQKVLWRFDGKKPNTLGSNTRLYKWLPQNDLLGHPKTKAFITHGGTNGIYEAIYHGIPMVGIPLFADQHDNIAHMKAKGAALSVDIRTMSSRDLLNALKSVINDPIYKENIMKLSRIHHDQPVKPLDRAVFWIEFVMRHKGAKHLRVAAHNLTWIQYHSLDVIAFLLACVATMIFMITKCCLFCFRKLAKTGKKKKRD

B1: uridine diphospho-glucuronosyltransferase 2B17 (protein)
chain: MSLKWMSVFLLMQLSCYFSSGSCGKVLVWPTEYSHWINMKTILEELVQRGHEVIVLTSSASILVNASKSSAIKLEVYPTSLTKNDLEDFFMKMFDRWTYSISKNTFWSYFSQLQELCWEYSDYNIKLCEDAVLNKKLMRKLQESKFDVLLADAVNPCGELLAELLNIPFLYSLRFSVGYTVEKNGGGFLFPPSYVPVVMSELSDQMIFMERIKNMIYMLYFDFWFQAYDLKKWDQFYSEVLGRPTTLFETMGKAEMWLIRTYWDFEFPRPFLPNVDFVGGLHCKPAKPLPKEMEEFVQSSGENGIVVFSLGSMISNMSEESANMIASALAQIPQKVLWRFDGKKPNTLGSNTRLYKWLPQNDLLGHPKTKAFITHGGTNGIYEAIYHGIPMVGIPLFADQHDNIAHMKAKGAALSVDIRTMSSRDLLNALKSVINDPIYKENIMKLSRIHHDQPVKPLDRAVFWIEFVMRHKGAKHLRVAAHNLTWIQYHSLDVIAFLLACVATMIFMITKCCLFCFRKLAKTGKKKKRD
B2: UGT2B17 (Homo sapiens) (protein)
chain: T1 sequence (O75795 24-530)

Legend:
UGT2B17 [1] = molecular target: T1, UGT2B17; test: Second glucuronidation assay to determine the amount of enzyme activity (glucuronide formation); format: biochemical; settings: for Glucuronide Formation (pmol/min/mg protein): HK293-UGT2B17 cell homogenate, 6 μM [14C]UDPGA and 494 μM unlabelled UDPGA, 15 minutes at 30° C.; for identified as major endogenous substrates of UGT2B17: 3α and 17β hydroxyandrogens
Description: Stable Expression of UGT2B17. Human kidney 293 cells were grown in Dubelcco's modified Eagle's medium containing 4.5 g/l glucose, 10 mM HEPES, 110 μg/ml sodium pyruvate, 100 IU of penicillin/ml, 100 μg/ml of streptomycin and 10% fetal bovine serum (FBS) in a humidified incubator, with an atmosphere of 5% CO2, at 37° C. 5 μg of pBK-CMV-UGT2B17 was used to transfect HK293 cells using Lipofectin and following the manufacturer's instructions (Gibco BRL: Burlington, Canada). Forty-eight hours after transfection, stable transfectants were selected in a media containing 800 μg/ml G418.
Glucuronidation Assay Using Cell Homogenates. HK293 cells expressing UGT2B17 were suspended in a Tris buffered saline containing 0.5 mM DTT and were homogenized using a Brinkman polytron. Enzyme assays were performed using [^14 C] UDP-glucuronic acid ([…]), 500 μM of the various aglycones and 150 μg of protein from cell homogenates in 50 mM Tris-HCl (pH 7.5), 10 mM MgCl2, 100 μg/ml phosphatidylcholine and 8.5 mM saccharolactone in a final volume of 100 μl. The enzyme assays were terminated by adding 100 μl of methanol, and the tubes were centrifuged at 14,000 g for 1 minute to remove the precipitated proteins. 100 μl of the aqueous phase was applied onto thin layer chromatography (TLC) plates (0.25 mm thick silica gel, 60 F254 S) (EM Science, Gibbstown, N.J.) and then was chromatographed in a solvent of toluene:methanol:acetic acid in the proportion of 7:3:1. The TLC plates were exposed for four days and the extent of glucuronidation was measured by Phosphorimager (Molecular Dynamics).
In the second assay, the substrate was exposed to […]

UGT2B17 [2] = molecular target: T1, UGT2B17; test: Kinetic analysis of UGT2B17 specificity (Lineweaver-Burk plots, FIGS. 4A and 4B); format: biochemical
Description: to FIGS. 4A and 4B are Lineweaver-Burk plots of ADT and DHT, and 3α-DIOL and testosterone (TESTO), respectively; and
A kinetic analysis was also performed to further characterize the specificity of UGT2B17 for ADT, DHT, 3α-DIOL and testosterone.

[3] = test system: androgen response element reporter in LNCaP cells; test: Androgen response element reporter construct in LNCaP cells transfected with UGT2B17; format: cell-based, human
Text: Reducing androgen activity with UGT2B17. LNCaP cells were transfected with UGT2B17 in the presence of a reporter construct controlled by an androgen response element so as the expression of the reporter gene is indicative of androgenic activity.

[4] = substrate: O=C(O)[C@H]1O[C@H](OP(=O)(O)OP(=O)(O)OC[C@H]2O[C@@H](n3ccc(=O)[nH]c3=O)[C@H](O)[C@@H]2O)[C@H](O)[C@@H](O)[C@@H]1O; test: cells, lysate or membranes; settings: other: 30° C., reaction linear for 30 minutes, pH 7.5

| Molecule | Glucuronide Formation (pmol/min/mg protein) (UGT2B17 [1]) | identified as major endogenous substrates of UGT2B17 (UGT2B17 [1]) | further results |
| --- | --- | --- | --- |
| C[C@]12CC[C@@H](O)C[C@@H]1CC[C@@H]1[C@@H]2[C@H](O)C[C@]2(C)[C@@H](O)CC[C@@H]12 [5α-Androstane-3α,11α,17β-triol] | 5 | – | – |
| C[C@]12CC[C@@H](O)C[C@@H]1CC[C@@H]1[C@@H]2[C@@H](O)C[C@]2(C)[C@@H](O)CC[C@@H]12 [5α-Androstane-3α,11β,17β-triol] | 8 | – | – |
| C[C@]12CC[C@@H](O)C[C@@H]1CC[C@@H]1[C@@H]2CC[C@]2(C)[C@@H](O)CC[C@@H]12 [5α-Androstane-3α,17β-diol] | 15 | major endogenous substrates | affinity of the enzyme based on Km values (UGT2B17 [2]): similar |
| C[C@]12CC[C@H](O)C[C@@H]1CC[C@@H]1[C@@H]2CC[C@]2(C)[C@@H](O)CC[C@@H]12 [5α-Androstane-3β,17β-diol] | – | major endogenous substrates | – |
| C[C@H](O)[C@H]1CC[C@H]2[C@@H]3CC[C@H]4C[C@H](O)CC[C@]4(C)[C@H]3CC[C@]12C [5α-pregnane-3α,20α-diol] | 8 | – | – |
| C[C@]12CC[C@@H](O)C[C@H]1CC[C@@H]1[C@@H]2CC[C@]2(C)[C@@H](O)[C@H](O)C[C@@H]12 [5β-Androstane-3α,16α,17β-triol] | 11 | – | – |
| C[C@]12CC[C@@H](O)C[C@H]1CC[C@@H]1[C@@H]2CC[C@]2(C)[C@@H](O)CC[C@@H]12 [5β-Androstane-3α,17β-diol] | 14 | – | – |
| C[C@]12CC[C@H]3[C@@H](CC=C4C[C@@H](O)CC[C@@]43C)[C@@H]1CC[C@@H]2O [Androst-5-ene-3β,17β-diol] | – | major endogenous substrates | – |
| C[C@]12CC[C@@H](O)C[C@@H]1CC[C@@H]1[C@@H]2CC[C@]2(C)C(=O)CC[C@@H]12 [Androsterone] | 5 | major endogenous substrates | affinity of the enzyme based on Km values (UGT2B17 [2]): similar |
| C[C@]12CCC(=O)C[C@@H]1CC[C@@H]1[C@@H]2CC[C@]2(C)[C@@H](O)CC[C@@H]12 [Dihydrotestosterone] | 14 | major endogenous substrates | affinity of the enzyme based on Km values (UGT2B17 [2]): similar |
| C[C@]12CC[C@@H](O)C[C@H]1CC[C@@H]1[C@@H]2CC[C@]2(C)C(=O)CC[C@@H]12 [Etiocholanolone] | 13 | – | – |
| C=CCc1ccc(O)c(OC)c1 [Eugenol] | 38 | – | – |
| C[C@]12CC[C@H]3[C@@H](CCC4=CC(=O)CC[C@@]43C)[C@@H]1CC[C@@H]2O [Testosterone] | 9 | major endogenous substrates | affinity of the enzyme based on Km values (UGT2B17 [2]): similar |
| Oc1cccc2ccccc12 [l-naphtol] | 7 | – | – |
| Oc1ccccc1-c1ccccc1O [o,o' biphenyl] | 7 | – | – |
| Oc1ccc(-c2ccc(O)cc2)cc1 [p,p' biphenyl] | 5 | – | – |
| O=[N+]([O-])c1ccc(O)cc1 [p-nitrophenol] | 4 | – | – |
| B1 | – | – | expression of the reporter gene (indicative of androgenic activity) [3]: decreased expression of the reporter gene |
| B2 | – | – | Km [4]: 200 µM |
